Test results from patent US20180214467A1, “GLP-1 SECRETAGOGUE” (EDUCATIONAL FOUNDATION JICHI MEDICAL UNIVERSITY, priority 2015, published 2018).

Legend:
C57BL/6J male mice [1] = experiment: Portal vein active GLP-1 and total GIP 30 minutes after oral administration of monosaccharides to fasting mice (Example 2); assay type: in vivo; details: 30 minutes after administration, vs saline
Protocol: To the C57BL/6J male mice (9-11 weeks old) having fasted for 16 hours from 18:00 on the day before the experiment, D-psicose at 0.3 g/kg or 1 g/kg, D-tagatose or D-glucose each at 1 g/kg, or saline was orally administered into each stomach at 10:00 AM. The dose of the oral administration was 10 ml/kg. The blood was collected from the portal vein under isoflurane anesthesia 30 minutes after the administration. Note that an anticoagulant (heparin (final concentration: 50 IU/ml)) and peptide degradation suppressors (aprotinin (final concentration: 500 KIU/ml) and vildagliptin (final concentration: 10 μM)) had been added into the sampling syringes in advance. The collected blood was cooled and centrifuged. The blood plasma was stored at −80° C. until the analysis. The quantitative analyses of active GLP-1 and total GIP were conducted using the above-described kits. In addition, as the statistical analyses, a one-way analysis of variance (unpaired) was performed, followed by Dunnett's test using saline as the control. […] Note that, in FIG. 3, * indicates p<0.05, and ** indicates p<0.01. Moreover, numerical values in bar graphs in the figure each indicate the number of experiments.

healthy subjects = experiment: Total GLP-1 blood concentration AUC after single ingestion by healthy subjects (Example 6); assay type: in vivo; details: humans, fasting
Protocol: After setting a termination period for one week or more in advance, 200 ml of water (control beverage) or D-psicose at 5 g/200 ml (D-psicose: 0.07 to 0.11 g/kg body weight), 10 g/200 ml (D-psicose: 0.14 to 0.22 g/kg body weight), or 15 g/200 ml (test beverage) (D-psicose: 0.21 to 0.33 g/kg body weight) each at a single dose was randomly ingested by six healthy subjects (three men and three women. The body weights: 53.3±7.4 kg). In the night before the day when the control beverage or the test beverage was ingested (test day), a designated dinner was ingested. After 21:00 in the night until 9:00 AM on the test day, the ingestion of foods and beverages excluding water and tea beverages was prohibited. As the designated diet, any menu (curry, chicken and egg bowl, beef bowl, Chinese rice bowl) was selectable which hardly contain substances such as dietary fibers, lactic acid bacteria, and fermentative saccharides utilizable by intestinal bacteria for the fermentations. […] The total GLP-1 amount in the centrifuged blood plasma was measured using the product manufactured by Merck KGaA: “Multi Species GLP-1 Total ELISA.” Note that the subjects were made to keep regular lifestyles and avoid excessive exercising, eating, and drinking during the test period of approximately one month, and spend a time quietly in house during the test.

Sprague Dawley rat = experiment: Blood glucose and total GLP-1 over time after oral administration to fasted rats (Example 5); assay type: in vivo; details: 2 g/kg body weight oral, fasted SD rats, 0 to 240 minutes
Protocol: Before a sample was administered (0 minutes), the blood was collected from the tail vein of each Sprague Dawley rat (8 to 9 weeks old male) having fasted overnight. Using a feeding tube, each solution of deionized water (control group), D-psicose, an indigestible dextrin (DE10), and a dextrin (the product manufactured by Matsutani Chemical Industry Co., Ltd.: “Pinedex #2” (DE10)) was orally administered at 2 g/kg body weight (10 mL/kg body weight). Then, the blood was collected from the tail vein after 15 minutes, 30 minutes, 60 minutes, 90 minutes, 120 minutes, 150 minutes, 180 minutes, 210 minutes, and 240 minutes.
The blood was collected into a tube to which a DPP-IV inhibitor (manufactured by Millipore Corporation), aprotinin (manufactured by Wako Pure Chemical Industries, Ltd.), and heparin (manufactured by Nacalai Tesque, Inc.) had been added in advance. The blood plasma was collected by centrifugation, and cryopreserved at −80° C. The total GLP-1 concentration in the resulting blood plasma was measured with a commercially available ELISA kit (Multi Species GLP-1 Total ELISA manufactured by Millipore Corporation). The glucose concentration in the blood plasma was measured with Glucose CII-Test Wako (manufactured by Wako Pure Chemical Industries, Ltd.).

C57BL/6J male mice [2] = experiment: Amount of diet ingested after oral D-psicose or D-tagatose (Example 4); assay type: in vivo; details: 1 g/kg oral, vs control group (saline)
Protocol: The C57BL/6J male mice (7-11 weeks old) were preliminarily grown in separate cages for one week or more, and habituated to the growth and experimental environment through training by the experimenter. After the fasting for 16 hours from 18:00 on the day before the experiment, saline, D-psicose at 1 g/kg, or D-tagatose at 1 g/kg was orally administered into each stomach from 9:50. The doses were each 10 ml/kg. From 10:00, the mice were fed with Diet CE-2 ad lib. After 1 hour, 2 hours, and 6 hours, the amounts of the diet ingested were measured over time. Each amount of the diet ingested was calculated as the amount of energy ingested (kcal), given that 1 g of D-tagatose orally administered into the stomach is 2 kcal, and 1 g of Diet CE-2 is 3.45 kcal. As the statistical analyses, a one-way analysis of variance (unpaired) was performed on the results at the respective time points, and multiple comparisons were performed by Tukey's test among all the groups. […] Note that, in FIG. 5, * indicates p<0.05, and ** indicates p<0.01.

[3] = test system: murine large intestine-derived, Glucagon-like peptide-1 (GLP-1) producing cell line GLUTag; experiment: GLP-1 secretion test in GLUTag cells (preliminary test); assay type: cell-based; details: 10 mM, 20 mM and 40 mM solutions, 60 minutes
Protocol: A murine large intestine-derived, Glucagon-like peptide-1 (GLP-1) producing cell line GLUTag was cultured in 10%-FBS containing Dulbecco's modified Eagle's medium at 37° C. in the presence of 5% CO2. The GLUTag cells were cultured in a 48-well plate for 2 or 3 days until subconfluence. Before each sample (D-psicose or an indigestible dextrin) was added, the wells were washed with a Hepes buffer (140 mM NaCl, 4.5 mM KCl, 20 mM Hepes, 1.2 mM CaCl2, 1.2 mM MgCl2, 10 mM D-glucose, 0.1% BSA, pH: 7.4). Then, 80 μl of a solution of the sample dissolved in the same buffer was added to the wells, and incubated at 37° C. for 60 minutes. After the supernatant was collected, the cells were precipitated by centrifugation (800×g, 5 minutes, 4° C.), and 70 μl of the supernatant was cryopreserved. The total GLP-1 in this supernatant was measured with commercially available “Enzyme immuno assay kit” (manufactured by Yanaihara Institute Inc.).

C57BL/6J male mice [4] = experiment: Portal vein active GLP-1, total GLP-1 and total GIP over time after oral administration to fasting mice (Example 1); assay type: in vivo; details: 1 g/kg oral
Protocol: As the experimental animal, C57BL/6J male mice (9-11 weeks old) were used. To the mice having fasted for 16 hours from 18:00 on the day before the experiment, D-psicose at 1 g/kg was orally administered into each stomach at 10:00 AM. The dose of the oral administration was 10 ml/kg. Before the D-psicose administration and 30 minutes and 60 minutes after the administration, the blood was collected from the portal vein under isoflurane anesthesia. Note that an anticoagulant (heparin (final concentration: 50 IU/ml)) and peptide degradation suppressors (aprotinin (final concentration: 500 KIU/ml) and vildagliptin (final concentration: 10 μM)) had been added into the sampling syringes in advance. The collected blood was cooled, centrifuged, and stored at −80° C. until the resulting blood plasma was analyzed. The quantitative analyses of active GLP-1, total GLP-1, and total GIP were conducted using ELISA kits (manufactured by Millipore Corporation. EGLP-35K, EZGLPIT-36K, and EZRMGIP-55K, respectively). In addition, as the statistical analyses, a one-way analysis of variance (paired) was performed, followed by Dunnett's test using a value before the D-psicose administration (0 min) as the control. […] Note that, in FIG. 2, * indicates p<0.05, and ** indicates p<0.01. Moreover, numerical values in bar graphs in FIG. 2 each indicate the number of experiments.

C57BL/6J male mice [5] = experiment: Amount of diet ingested after oral D-psicose with or without GLP-1 receptor inhibitor Ex-9 (Example 3); assay type: in vivo; details: vs control group
Protocol: The C57BL/6J male mice (9-11 weeks old) were preliminarily grown in separate cages for one week or more, and habituated to the growth and experimental environment through training by the experimenter. After the fasting for 16 hours from 18:00 on the day before the experiment, saline or a GLP-1 receptor inhibitor (Exendin-9, Ex-9, 200 nmol/kg) was intraperitoneally administered from 9:45. Immediately thereafter, saline or D-psicose at 1 g/kg was orally administered into each stomach. The doses of the intraperitoneal administration and the oral administration were respectively 5 ml/kg and 10 ml/kg. From 10:00, the mice were fed with Diet CE-2 (common mouse diet with well-balanced nutrients, manufactured by CLEA Japan, Inc.) ad lib. After 0.5 hours, 1 hour, 2 hours, 3 hours, and 6 hours, the amounts of the diet ingested were measured over time. Each amount of the diet ingested was calculated as the amount of energy ingested (kcal), given that 1 g of D-psicose orally administered into the stomach is 0 kcal, and 1 g of Diet CE-2 is 3.45 kcal. As the statistical analyses, a one-way analysis of variance (unpaired) was performed on the results at the respective time points, and multiple comparisons were performed by Tukey's test among all the groups. […] Note that, in FIG. 4, * indicates p<0.05, and ** indicates p<0.01.

[6] = 30 to 60 minutes after administration vs 0 min

**Q.** With `O=C[C@H](O)[C@@H](O)[C@H](O)[C@H](O)CO` [D-glucose, reference compound] as the compound, how does the “active GLP-1 concentration in the portal veins” value (shortened to “active GLP-1 concentration”) (C57BL/6J male mice [1]; 1 g/kg oral) read?
**A.** did not change at all

**Q.** What about the “total GIP in the portal veins” value (C57BL/6J male mice [1]; 1 g/kg oral) of the same compound?
**A.** significantly increased the GIP concentration

**Q.** Which “active GLP-1 concentration” value (C57BL/6J male mice [1]; 0.3 g/kg oral) does the source give for `O=C(CO)[C@H](O)[C@H](O)[C@H](O)CO` [D-psicose] here?
**A.** tended to increase

**Q.** What about the “total GIP in the portal veins” value (C57BL/6J male mice [1]; 0.3 g/kg oral) of the same compound?
**A.** only the D-glucose administration group significantly increased the GIP concentration

**Q.** What about the “active GLP-1 concentration” value (C57BL/6J male mice [1]; 1 g/kg oral) of the same compound?
**A.** significantly increased

**Q.** And the “total GIP in the portal veins” value (C57BL/6J male mice [1]; 1 g/kg oral)?
**A.** only the D-glucose administration group significantly increased the GIP concentration

**Q.** What about the “area under total GLP-1 blood concentration-time curve (AUC)” value (healthy subjects; single dose 5 g, 10 g or 15 g/200 ml, 15 to 180 minutes) of the same compound?
**A.** increased in a manner dependent on the amount of D-psicose ingested

**Q.** What about the “single dose at which the effect of promoting the amount of total GLP-1 secreted into the blood was obtained” value (healthy subjects; single oral ingestion) of the same compound?
**A.** at least 0.07 g/kg body weight

**Q.** What about the blood sugar level (Sprague Dawley rat) of the same compound?
**A.** small variation

**Q.** What about the “total GLP-1 concentration in the blood” value (Sprague Dawley rat) of the same compound?
**A.** greatly increased

**Q.** What about the “amount of the diet ingested” value (C57BL/6J male mice [2]; 1 hour to 6 hours after administration) of the same compound?
**A.** significantly smaller

**Q.** And the “GLP-1 secretion (total GLP-1 in supernatant)” value [3]?
**A.** merely tended to exhibit slight secretion promotion

**Q.** And the “active GLP-1 concentration” value (C57BL/6J male mice [4]; [6])?
**A.** increased

**Q.** What about the “total GLP-1 concentration in the portal veins” value (C57BL/6J male mice [4]; [6]) of the same compound?
**A.** increased

**Q.** What about the “GIP secretion (total GIP concentration in the portal veins)” value (C57BL/6J male mice [4]; for 60 minutes after administration) of the same compound?
**A.** did not influence the GIP secretion

**Q.** What about the “amount of the diet ingested” value (C57BL/6J male mice [5]; Ex-9 200 nmol/kg i.p. + D-psicose 1 g/kg oral, 30 minutes after administration) of the same compound?
**A.** significantly smaller

**Q.** What about the “amount of the diet ingested” value (C57BL/6J male mice [5]; Ex-9 200 nmol/kg i.p. + D-psicose 1 g/kg oral, after 1 hour (to 6 hours) from administration) of the same compound?
**A.** not significantly different

**Q.** And the “amount of the diet ingested” value (C57BL/6J male mice [5]; saline i.p. + D-psicose 1 g/kg oral, 30 minutes to 6 hours after administration)?
**A.** significantly decreased

**Q.** Which “active GLP-1 concentration” value (C57BL/6J male mice [1]; 1 g/kg oral) does the source give for `O=C(CO)[C@@H](O)[C@@H](O)[C@H](O)CO` [D-tagatose, reference compound] here?
**A.** tended to increase

**Q.** What about the “total GIP in the portal veins” value (C57BL/6J male mice [1]; 1 g/kg oral) of the same compound?
**A.** only the D-glucose administration group significantly increased the GIP concentration

**Q.** And the “amount of the diet ingested” value (C57BL/6J male mice [2]; 1 hour after administration)?
**A.** significantly smaller

**Q.** What about the “amount of the diet ingested” value (C57BL/6J male mice [2]; 2 hours and 6 hours after administration) of the same compound?
**A.** almost the same

**Q.** Which “amount of the diet ingested” value (C57BL/6J male mice [5]; Ex-9 200 nmol/kg i.p. + saline oral, all time zones) does the source give for Exendin-9 [Ex9, reference compound] here?
**A.** at the same levels
